Laboratory results taken from patent publication US20240246977A1, “DEGRADATION OF BRUTON'S TYROSINE KINASE (BTK) BY CONJUGATION OF BTK INHIBITORS WITH E3 LIGASE LIGAND AND METHOD OF USE” (BeiGene Switzerland GmbH, priority 2021, published 2024).

Columns and labels:
[1] = tested on: HEK-293 cells; test: HEK-293 cytotoxicity detection (CellTiter-Glo); type: cell-based; conditions: Homo sapiens, 72 h, 72 h incubation, CellTiter-Glo luminescence, read-out: HEK293
In short: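 HEK-293 cells exposed 72 h to 8 compounds doses (4-fold dilutions, top stock 5 mM at 500×) in 0.2% DMSO. Viability by CellTiter-Glo luminescence; inhibition normalised to DMSO high control and low control, IC50 from four-parameter curve fit.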

[2] = biological target: BTK (Homo sapiens, UniProt Q06187); test: BTK cell degradation in TMD-8 cells, HTRF assay; type: cell-based; parameters: endogenous in cells; host or cells: TMD-8 cells; conditions: 6 h treatment, IC50 (DC50) of BTK degradation
In short: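 BTK levels read by HTRF in lysates of TMD-8 cells exposed to compounds for 6 h, eight concentrations at 6-fold steps in 0.2% DMSO. Percent degradation versus DMSO and low controls was fitted with a four-parameter equation to give DC50; Dmax is maximal degradation.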

Chain of BTK (Q06187 whole entry): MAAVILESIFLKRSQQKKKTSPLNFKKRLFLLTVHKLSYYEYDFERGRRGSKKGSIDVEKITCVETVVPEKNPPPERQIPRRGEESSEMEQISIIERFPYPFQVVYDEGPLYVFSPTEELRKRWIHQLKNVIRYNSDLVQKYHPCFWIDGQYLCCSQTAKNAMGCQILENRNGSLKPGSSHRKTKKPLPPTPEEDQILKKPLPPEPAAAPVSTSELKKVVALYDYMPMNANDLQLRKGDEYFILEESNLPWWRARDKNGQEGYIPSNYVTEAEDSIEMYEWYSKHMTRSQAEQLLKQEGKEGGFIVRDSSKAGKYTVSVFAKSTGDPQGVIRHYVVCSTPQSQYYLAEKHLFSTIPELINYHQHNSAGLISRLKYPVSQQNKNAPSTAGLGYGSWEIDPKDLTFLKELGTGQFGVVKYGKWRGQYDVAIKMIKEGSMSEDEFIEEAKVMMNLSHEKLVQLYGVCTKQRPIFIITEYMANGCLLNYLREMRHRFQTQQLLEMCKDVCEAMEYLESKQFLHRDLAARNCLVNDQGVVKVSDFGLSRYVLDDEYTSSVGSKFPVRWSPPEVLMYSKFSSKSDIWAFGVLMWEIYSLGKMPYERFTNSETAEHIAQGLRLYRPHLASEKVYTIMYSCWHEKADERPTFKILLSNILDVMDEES

DC50 [2] [nM]	Structure (SMILES)	IC50 [1] [nM]
1.61	NC(=O)c1c(-c2cc(F)c(C(=O)Nc3cc(C(F)(F)F)ccn3)c(F)c2)nn2c1Nc1ccc(N3CCN(CC4CCN(c5ccc(N6CCC(=O)NC6=O)cc5)CC4)CC3)cc1CC2 [Example B14, 2-(3,5-difluoro-4-((4-(trifluoromethyl)pyridin-2-yl)carbamoyl)phenyl)-7-(4-((1-(4-(2,4-dioxotetrahydropyrimidin-1(2H)-yl)phenyl)piperidin-4-yl)methyl)piperazin-1-yl)-9,10-dihydro-4H-benzo[d]pyrazolo[1,5-a][1,3]diazepine-3-carboxamide]	75.4
1.13	Cc1c(C(=O)Nc2cc(C(F)(F)F)ccn2)ccc(-c2nn3c(c2C(N)=O)Nc2ccc(N4CCN(CC5CCN(c6ccc(N7CCC(=O)NC7=O)cc6)CC5)CC4)cc2CC3)c1F [Example B15, 7-(4-((1-(4-(2,4-dioxotetrahydropyrimidin-1(2H)-yl)phenyl)piperidin-4-yl)methyl)piperazin-1-yl)-2-(2-fluoro-3-methyl-4-((4-(trifluoromethyl)pyridin-2-yl)carbamoyl)phenyl)-9,10-dihydro-4H-benzo[d]pyrazolo[1,5-a][1,3]diazepine-3-carboxamide]	185
1.32	NC(=O)c1c(-c2ccc(C(=O)Nc3cccc(C(F)(F)F)n3)cc2)nn2c1Nc1ccc(N3CCN(CC4CCN(c5ccc(N6CCC(=O)NC6=O)cc5)CC4)CC3)cc1CC2 [Example B16, 7-(4-((1-(4-(2,4-dioxotetrahydropyrimidin-1(2H)-yl)phenyl)piperidin-4-yl)methyl)piperazin-1-yl)-2-(4-((6-(trifluoromethyl)pyridin-2-yl)carbamoyl)phenyl)-9,10-dihydro-4H-benzo[d]pyrazolo[1,5-a][1,3]diazepine-3-carboxamide]	232
2.19	NC(=O)c1c(-c2ccc(C(=O)Nc3ccc(C(F)(F)F)cn3)cc2)nn2c1Nc1ccc(N3CCN(CC4CCN(c5ccc(N6CCC(=O)NC6=O)cc5)CC4)CC3)cc1CC2 [Example B17, 7-(4-((1-(4-(2,4-dioxotetrahydropyrimidin-1(2H)-yl)phenyl)piperidin-4-yl)methyl)piperazin-1-yl)-2-(4-((5-(trifluoromethyl)pyridin-2-yl)carbamoyl)phenyl)-9,10-dihydro-4H-benzo[d]pyrazolo[1,5-a][1,3]diazepine-3-carboxamide]	> 10000
0.378	NC(=O)c1c(-c2ccc(C(=O)Nc3cc(C(F)F)ccn3)cc2)nn2c1Nc1ccc(N3CCN(CC4CCN(c5ccc(N6CCC(=O)NC6=O)cc5)CC4)CC3)cc1CC2 [Example B18, 2-(4-((4-(difluoromethyl)pyridin-2-yl)carbamoyl)phenyl)-7-(4-((1-(4-(2,4-dioxotetrahydropyrimidin-1(2H)-yl)phenyl)piperidin-4-yl)methyl)piperazin-1-yl)-9,10-dihydro-4H-benzo[d]pyrazolo[1,5-a][1,3]diazepine-3-carboxamide]	> 10000
0.284	Cc1cccc(NC(=O)c2ccc(-c3nn4c(c3C(N)=O)Nc3ccc(N5CCN(CC6CCN(c7ccc(N8CCC(=O)NC8=O)cc7)CC6)CC5)cc3CC4)cc2)n1 [Example B19, 7-(4-((1-(4-(2,4-dioxotetrahydropyrimidin-1(2H)-yl)phenyl)piperidin-4-yl)methyl)piperazin-1-yl)-2-(4-((6-methylpyridin-2-yl)carbamoyl)phenyl)-9,10-dihydro-4H-benzo[d]pyrazolo[1,5-a][1,3]diazepine-3-carboxamide]	> 10000
0.469	Cc1cccc(NC(=O)c2ccc(-c3nn4c(c3C(N)=O)Nc3ccc(N5CCN(CC6CCN(c7ccc(N8CCC(=O)NC8=O)cc7)CC6)CC5)cc3CC4)c(Cl)c2)n1 [Example B20, 2-(2-chloro-4-((6-methylpyridin-2-yl)carbamoyl)phenyl)-7-(4-((1-(4-(2,4-dioxotetrahydropyrimidin-1(2H)-yl)phenyl)piperidin-4-yl)methyl)piperazin-1-yl)-9,10-dihydro-4H-benzo[d]pyrazolo[1,5-a][1,3]diazepine-3-carboxamide]	> 10000
0.602	Cc1cccc(NC(=O)c2ccc(-c3nn4c(c3C(N)=O)Nc3ccc(N5CCN(CC6CCN(c7ccc(N8CCC(=O)NC8=O)cc7)CC6)CC5)cc3CC4)cc2C)n1 [Example B21, 7-(4-((1-(4-(2,4-dioxotetrahydropyrimidin-1(2H)-yl)phenyl)piperidin-4-yl)methyl)piperazin-1-yl)-2-(3-methyl-4-((6-methylpyridin-2-yl)carbamoyl)phenyl)-9,10-dihydro-4H-benzo[d]pyrazolo[1,5-a][1,3]diazepine-3-carboxamide]	> 10000
0.338	COc1cc(C(=O)Nc2cccc(C)n2)ccc1-c1nn2c(c1C(N)=O)Nc1ccc(N3CCN(CC4CCN(c5ccc(N6CCC(=O)NC6=O)cc5)CC4)CC3)cc1CC2 [Example B22, 7-(4-((1-(4-(2,4-dioxotetrahydropyrimidin-1(2H)-yl)phenyl)piperidin-4-yl)methyl)piperazin-1-yl)-2-(2-methoxy-4-((6-methylpyridin-2-yl)carbamoyl)phenyl)-9,10-dihydro-4H-benzo[d]pyrazolo[1,5-a][1,3]diazepine-3-carboxamide]	> 10000
0.594	Cc1cc(C)nc(NC(=O)c2ccc(-c3nn4c(c3C(N)=O)Nc3ccc(N5CCN(CC6CCN(c7ccc(N8CCC(=O)NC8=O)cc7)CC6)CC5)cc3CC4)cc2C)c1 [Example B23, 2-(4-((4,6-dimethylpyridin-2-yl)carbamoyl)-3-methylphenyl)-7-(4-((1-(4-(2,4-dioxotetrahydropyrimidin-1(2H1)-yl)phenyl)piperidin-4-yl)methyl)piperazin-1-yl)-9,10-dihydro-4H-benzo[d]pyrazolo[1,5a][1,3]diazepine-3-carboxamide]	> 10000
1.51	NC(=O)c1c(-c2ccc(C(=O)Nc3cc(C(F)(F)F)ccn3)cc2Cl)nn2c1Nc1ccc(N3CCN(CC4CCN(c5ccc(N6CCC(=O)NC6=O)cc5)CC4)CC3)cc1CC2 [Example B24, 2-(2-chloro-4-((4-(trifluoromethyl)pyridin-2-yl)carbamoyl)phenyl)-7-(4-((1-(4-(2,4-dioxotetrahydropyrimidin-1(2H)-yl)phenyl)piperidin-4-yl)methyl)piperazin-1-yl)-9,10-dihydro-4-benzo[d]pyrazolo[1,5-a][1,3]diazepine-3-carboxamide]	> 10000
0.415	Cc1cccc(NC(=O)c2ccc(-c3nn4c(c3C(N)=O)Nc3ccc(N5CCN(CC6CCN(c7ccc(N8CCC(=O)NC8=O)cc7)CC6)CC5)cc3CC4)cc2Cl)n1 [Example B25, 2-(3-chloro-4-((6-methylpyridin-2-yl)carbamoyl)phenyl)-7-(4-((1-(4-(2,4-dioxotetrahydropyrimidin-1(2H)-yl)phenyl)piperidin-4-yl)methyl)piperazin-1-yl)-9,10-dihydro-4H-benzo[d]pyrazolo[1,5-a][1,3]diazepine-3-carboxamide]	> 10000
0.928	NC(=O)c1c(-c2ccc(C(=O)Nc3cc(C(F)(F)F)ccn3)c(Cl)c2)nn2c1Nc1ccc(N3CCN(CC4CCN(c5ccc(N6CCC(=O)NC6=O)cc5)CC4)CC3)cc1CC2 [Example B26, 2-(3-chloro-4-((4-(trifluoromethyl)pyridin-2-yl)carbamoyl)phenyl)-7-(4-((1-(4-(2,4-dioxotetrahydropyrimidin-1(2H)-yl)phenyl)piperidin-4-yl)methyl)piperazin-1-yl)-9,10-dihydro-4H-benzo[d]pyrazolo[1,5-a][1,3]diazepine-3-carboxamide]	> 10000
0.849	COc1cc(C(=O)Nc2cc(C(F)(F)F)ccn2)ccc1-c1nn2c(c1C(N)=O)Nc1ccc(N3CCN(CC4CCN(c5ccc(N6CCC(=O)NC6=O)cc5)CC4)CC3)cc1CC2 [Example B27, 7-(4-((1-(4-(2,4-dioxotetrahydropyrimidin-1(2H)-yl)phenyl)piperidin-4-yl)methyl)piperazin-1-yl)-2-(2-methoxy-4-((4-(trifluoromethyl)pyridin-2-yl)carbamoyl)phenyl)-9,10-dihydro-4H-benzo[d]pyrazolo[1,5-a][1,3]diazepine-3-carboxamide]	> 10000
0.726	Cc1cccc(NC(=O)c2ccc(-c3nn4c(c3C(N)=O)Nc3ccc(N5CCN(CC6CCN(c7ccc(N8CCC(=O)NC8=O)cc7)CC6)CC5)cc3CC4)c(F)c2C)n1 [Example B28, 7-(4-((1-(4-(2,4-dioxotetrahydropyrimidin-1(2H)-yl)phenyl)piperidin-4-yl)methyl)piperazin-1-yl)-2-(2-fluoro-3-methyl-4-((6-methylpyridin-2-yl)carbamoyl)phenyl)-9,10-dihydro-4H-benzo[d]pyrazolo[1,5-a][1,3]diazepine-3-carboxamide]	> 10000
2.44	Cc1cc(C(F)(F)F)cc(NC(=O)c2ccc(-c3nn4c(c3C(N)=O)Nc3ccc(N5CCN(CC6CCN(c7ccc(N8CCC(=O)NC8=O)cc7)CC6)CC5)cc3CC4)c(F)c2C)n1 [Example B29, 7-(4-((1-(4-(2,4-dioxotetrahydropyrimidin-1(2H)-yl)phenyl)piperidin-4-yl)methyl)piperazin-1-yl)-2-(2-fluoro-3-methyl-4-((6-methyl-4-(trifluoromethyl)pyridin-2-yl)carbamoyl)phenyl)-9,10-dihydro-4H-benzo[d]pyrazolo[1,5-a][1,3]diazepine-3-carboxamide]	> 10000
